Experimental data reported in PubChem BioAssay AID256 (DTP/NCI, 2004).
“And” between values parts separate entries of the source, which are not always exact repeats. Equal entries are not always repeated. Toxic doses and inconclusive results are not listed. The calls were made as follows: active = survival T/C of 150% or more; inactive = T/C below 125% in these data.

System: CD2F1 mice, L1210 leukemia ip, survival T/C
Assay: NCI In Vivo Anticancer Drug Screen. Data for tumor model L1210 Leukemia (intraperitoneal) in CD2F1 (CDF1) mice
Conditions: endpoint: mean survival time, higher = longer survival
Procedure, shortened: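 Transplantable tumor in mice; compound-treated vs vehicle-treated groups. Read-out = treated/control ratio of the measured endpoint.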

[1] = dose: 100.0 mg/kg/injection, schedule: Q04DX003 (ip), vehicle: saline with Tween-80
[2] = dose: 200.0 mg/kg/injection, schedule: Q04DX003 (ip), vehicle: saline with Tween-80
[3] = dose: 400.0 mg/kg/injection, schedule: Q04DX003 (ip), vehicle: saline with Tween-80
[4] = dose: 100.0 mg/kg/injection, schedule: Q04DX002 (ip), vehicle: saline with Tween-80
[5] = dose: 200.0 mg/kg/injection, schedule: Q04DX002 (ip), vehicle: saline with Tween-80
[6] = dose: 100.0 mg/kg/injection, schedule: Q01DX009 (ip), vehicle: saline with Tween-80
[7] = dose: 200.0 mg/kg/injection, schedule: Q01DX009 (ip), vehicle: saline with Tween-80
[8] = dose: 400.0 mg/kg/injection, schedule: Q01DX009 (ip), vehicle: saline with Tween-80
[9] = dose: 75.0 mg/kg/injection, schedule: Q01DX001 (ip), vehicle: saline
[10] = dose: 150.0 mg/kg/injection, schedule: Q01DX001 (ip), vehicle: saline
[11] = dose: 50.0 mg/kg/injection, schedule: Q04DX002 (ip), vehicle: saline with Tween-80
[12] = dose: 12.5 mg/kg/injection, schedule: Q01DX005 (ip), vehicle: water
[13] = dose: 25.0 mg/kg/injection, schedule: Q01DX005 (ip), vehicle: water
[14] = dose: 50.0 mg/kg/injection, schedule: Q01DX005 (ip), vehicle: water
[15] = dose: 50.0 mg/kg/injection, schedule: Q01DX001 (ip), vehicle: saline
[16] = dose: 100.0 mg/kg/injection, schedule: Q01DX001 (ip), vehicle: saline
[17] = dose: 200.0 mg/kg/injection, schedule: Q01DX001 (ip), vehicle: saline
[18] = dose: 400.0 mg/kg/injection, schedule: Q04DX002 (ip), vehicle: saline with Tween-80
[19] = dose: 100.0 mg/kg/injection, schedule: Q04DX003 (ip), vehicle: saline
[20] = dose: 200.0 mg/kg/injection, schedule: Q04DX003 (ip), vehicle: saline

Measured: T/C

CC(=O)NC1=CC(=O)C(C)=CC1=O
inactive: dose: 5.0 mg/kg/injection, schedule: Q01DX001 (ip), vehicle: saline 98 % of control | dose: 10.0 mg/kg/injection, schedule: Q01DX001 (ip), vehicle: saline 98 % of control

CCc1cc(C)cc(OC(=O)Nc2cccc(Cl)c2)c1
inactive: [1] 88 % of control | [2] 92 % of control | [3] 92 % of control

O=C(/C=C/c1ccc2c(c1)OCO2)c1ccc(Cl)cc1
inactive: [1] 94 % of control | [2] 89 % of control

CCCCOS(=O)(=O)c1ccc(C)cc1
inactive: dose: 100.0 mg/kg/injection, schedule: Q04DX002 (ip), vehicle: Klucel (hydroxypropylcellulose) (HPC) 93 % of control | dose: 200.0 mg/kg/injection, schedule: Q04DX002 (ip), vehicle: Klucel (hydroxypropylcellulose) (HPC) 101 % of control | dose: 400.0 mg/kg/injection, schedule: Q04DX002 (ip), vehicle: Klucel (hydroxypropylcellulose) (HPC) 90 % of control

O=C1OC(=O)C2CCCC3CCCC1C32 (stereo not drawn)
inactive: [4] 108 % of control | [5] 108 % of control

COC(=O)/C=C/C=C/C(=O)OC
inactive: [6] 96 % of control | [1] 103 % of control | [7] 96 % of control | [2] 112 % of control | [8] 104 % of control | [3] 103 % of control

C=CN1CCCC1=O (tested in a mixture with another compound)
inactive: [1] 95 % of control | [2] 91 % of control | [3] 98 % of control

CC1(CO)C2C=CC(C2)C1(C)CO (stereo not drawn)
inactive: [9] 105 % of control | [10] 105 % of control

CN(CC(=O)O)C(=N)N
inactive: dose: 250.0 mg/kg/injection, schedule: Q01DX Z (ip), vehicle: saline 96 % of control | dose: 500.0 mg/kg/injection, schedule: Q01DX Z (ip), vehicle: saline 96 % of control | dose: 1000.0 mg/kg/injection, schedule: Q01DX Z (ip), vehicle: saline 100 % of control

CCNC(=O)OCC1C2=C(C(=O)C(C)=C(N)C2=O)N2CC3C(N3C)C12OC (stereo not drawn)
inactive: dose: 133.0 mg/kg/injection, schedule: Q01DX001 (ip), vehicle: carboxymethylcellulose (CMC) 118 % of control | dose: 300.0 mg/kg/injection, schedule: Q01DX001 (ip), vehicle: carboxymethylcellulose (CMC) 111 % of control

CCCCC(OC(=O)c1ccc([N+](=O)[O-])cc1)C(C)[N+](=O)[O-] (stereo not drawn)
inactive: [1] 104 % of control | [2] 97 % of control | [3] 104 % of control

CCOC(=O)C(C)OC(=O)c1ccccc1 (stereo not drawn)
inactive: [6] 103 % of control | [1] 91 % of control | [7] 105 % of control | [2] 105 % of control | [8] 100 % of control | [3] 103 % of control

O=[N+]([O-])c1cccc2c1cc([N+](=O)[O-])c1cccnc12
inactive: dose: 25.0 mg/kg/injection, schedule: Q04DX002 (ip), vehicle: saline with Tween-80 98 % of control | [11] 98 % of control | [4] 98 % of control

CC(C)CCCC(C)C1CCC2C3=CCC4CC(O)CCC4(C)C3CCC21C (stereo not drawn)
inactive: [1] 100 % of control | [2] 91 % of control | [3] 94 % of control

O=c1[nH]cc(CCCc2ccccc2)c(=O)[nH]1
inactive: [1] 97 % of control | [2] 99 % of control | [3] 90 % of control

CN(C)/C=N\c1ncnc2c1cnn2C1OC(CO)C(O)C1O (stereo not drawn)
inactive: dose: 3.13 mg/kg/injection, schedule: Q01DX005 (ip), vehicle: water 96 % of control | dose: 6.25 mg/kg/injection, schedule: Q01DX005 (ip), vehicle: water 102 % of control | [12] 110 % of control | [13] 98 % of control and 107 % of control | [14] 113 % of control and 110 % of control

CC12CCC(O)CC1CCC1C2CCC2(C)C(C3=CC(=O)OC3)CCC12 (stereo not drawn)
inactive: [15] 96 % of control | [16] 98 % of control | [17] 98 % of control

C=C(c1ccccc1)C(C)C(=O)OCC (stereo not drawn)
inactive: [1] 103 % of control | [2] 103 % of control | [3] 100 % of control

COc1cc2c(cc1O)C(C)NCC2 (stereo not drawn)
inactive: [9] 109 % of control | [10] 101 % of control

CCOc1ccccc1NCN1C(=O)c2ccccc2C1=O
inactive: [11] 95 % of control | [4] 91 % of control | [5] 95 % of control | [18] 88 % of control

O=C1OC2(c3cc(I)c(O)c(I)c3Oc3c2cc(I)c(O)c3I)c2c(Cl)ccc(Cl)c21
inactive: dose: 100.0 mg/kg/injection, schedule: Q01DX001 (ip), vehicle: saline with Tween-80 103 % of control | dose: 200.0 mg/kg/injection, schedule: Q01DX001 (ip), vehicle: saline with Tween-80 87 % of control | dose: 400.0 mg/kg/injection, schedule: Q01DX001 (ip), vehicle: saline with Tween-80 100 % of control

Cc1ccc(S(=O)(=O)Nc2ccccc2-c2nc3ccc(C)cc3c(=O)o2)cc1
inactive: [6] 100 % of control | [7] 91 % of control | [8] 96 % of control

C1=CC2CCC[N-]C2N1.C1=CC2CCC[N-]C2N1.[I][Pt+2][I] (stereo not drawn)
inactive: dose: 25.0 mg/kg/injection, schedule: Q04DX003 (ip), vehicle: saline 98 % of control | dose: 50.0 mg/kg/injection, schedule: Q04DX003 (ip), vehicle: saline 101 % of control | [19] 102 % of control | [20] 107 % of control

CCNc1ncnc2nncnc12
inactive: dose: 100.0 mg/kg/injection, schedule: Q01DX001 (ip), vehicle: carboxymethylcellulose (CMC) 98 % of control

O=C(COc1ccccc1)NC(=S)Nc1ccc([N+](=O)[O-])cc1Cl
inactive: [6] 88 % of control and 89 % of control | [4] 95 % of control | [7] 93 % of control and 94 % of control | [5] 87 % of control | [8] 92 % of control and 93 % of control | [18] 91 % of control

CCC(=O)c1cc2c(cc1CC)C(C)(C)CCC2(C)C
inactive: [15] 93 % of control | [16] 93 % of control | [19] 101 % of control | [17] 93 % of control | [20] 97 % of control | dose: 400.0 mg/kg/injection, schedule: Q01DX001 (ip), vehicle: saline 91 % of control | dose: 400.0 mg/kg/injection, schedule: Q04DX003 (ip), vehicle: saline 90 % of control

O=c1[nH]c(=O)n(C2CC(O)C(CO)O2)cc1S (stereo not drawn)
inactive: [12] 107 % of control | [13] 117 % of control | [14] 112 % of control | dose: 100.0 mg/kg/injection, schedule: Q01DX005 (ip), vehicle: water 122 % of control | dose: 133.0 mg/kg/injection, schedule: Q01DX005 (ip), vehicle: water 121 % of control | dose: 200.0 mg/kg/injection, schedule: Q01DX005 (ip), vehicle: water 111 % of control | dose: 300.0 mg/kg/injection, schedule: Q01DX005 (ip), vehicle: water 115 % of control

Nc1ncnc2c1ccn2C1OC(CO)C2[O][Sn]([c]3ccccc3)([c]3ccccc3)[O]C21 (stereo not drawn)
inactive: dose: 0.78 mg/kg/injection, schedule: Q01DX005 (ip), vehicle: other 110 % of control | dose: 1.56 mg/kg/injection, schedule: Q01DX005 (ip), vehicle: other 113 % of control | dose: 3.13 mg/kg/injection, schedule: Q01DX005 (ip), vehicle: other 111 % of control | dose: 6.25 mg/kg/injection, schedule: Q01DX005 (ip), vehicle: other 90 % of control
